Measured values: US4626523A, “GRF analogs II” (The Salk Institute for Biological Studies, priority 1985, dated 1986)
Square brackets hold non-standard residues; d marks the D form. Ends that are not written are not given here. Peptide text beside a SMILES is read from it. NMeY = CN[C@@H](Cc1ccc(O)cc1)C(=O)O; NMeF = CN[C@@H](Cc1ccccc1)C(=O)O; Nle = CCCC[C@H](N)C(=O)O

Experiments:
[1] = tested on: cells of rat pituitary glands; assay: in vitro GH release assay in cultured rat pituitary cells, side-by-side with hpGRF(1-40)-OH standard; format: cell-based; details: for Comparison % (GH release relative to hpGRF(1-40)-OH standard): equimolar concentrations, incubation 3 to 4 hours, immunoreactive GH in culture medium by radioimmunoassay, hpGRF(1-40)-OH = 100%
Experimental: To determine the effectiveness of the various synthetic peptides to promote the release of growth hormone, in vitro assays are carried out using synthetic hpGRF(1-40)--OH as a standard in side-by-side comparison with equimolar concentrations of the various other analogs and fragments synthesized. Cultures are used which include cells of rat pituitary glands removed some three to five days previously. Cultures which are considered optimal for the secretion of growth hormone are used for the comparative testing, in the general manner described in Vale et al. Endocrinology , 91, 562-572 (1972) and as more particularly described in Vale et al. Endocrinology, (1983), in press. Incubation with the substance to be tested is carried out for 3 to 4 hours, and aliquots of the culture medium are removed and processed to measure their contents in immunoreactive GH(ir GH) by a well-characterized radioimmunoassay.

[2] = tested on: secretion of pituitary GH; assay: in vivo GH secretion in freely running normal male rats pretreated with FLA-63; set-up: species or system rat; details: injection through indwelling catheter, blood samples prior to and 5 and 20 minutes after injection
Experimental: In addition to the in vitro tests for secretion of growth hormone, in vivo experiments inject the synthetic peptides through an indwelling catheter into freely running normal male rats after pretreating them with FLA-63, a dopamine hydroxylase inhibitor that suppresses spontaneous GH secretion without affecting the response to exogenous GRF. Blood samples are taken through the same catheter immediately prior to and 5 and 20 minutes after injections. […] Dosages between about 100 nanograms and about 50 micrograms per Kg. of body weight are considered to be effective in causing secretion.

| Molecule | Comparison % (GH release relative to hpGRF(1-40)-OH standard) [1] | duration of GH-releasing action compared with hpGRF(1-32)-NH2 [2] | stimulation of secretion of pituitary GH (GH levels in blood) ([2]; radioimmunoassay) | maximum effective concentration ([1]; in vitro, rat pituitary cell cultures) |
| --- | --- | --- | --- | --- |
| hpGRF(1-40)-OH (YADAIFTNSYRKVLGQLSARKLLQDIMSRQQGESNQERGA-OH; UniProt P01286 32-71, looked up, fragment) [synthetic human pancreas GH releasing factor fragment used as standard in the in vitro assay, reference compound] | 100% | – | – | – |
| CCCC[C@H](NC(=O)[C@@H](NC(=O)[C@H](CCC(=O)O)NC(=O)[C@H](Cc1c[nH]cn1)NC(=O)[C@H](CC(C)C)NC(=O)[C@H](CC(C)C)NC(=O)[C@H](CCCCN)NC(=O)[C@H](CCCNC(=N)N)NC(=O)[C@H](C)NC(=O)[C@H](Cc1ccc(O)cc1)NC(=O)[C@H](CC(C)C)NC(=O)[C@H](CCC(N)=O)NC(=O)CNC(=O)[C@H](CC(C)C)NC(=O)[C@@H](NC(=O)[C@H](CCCNC(=N)N)NC(=O)[C@H](CCCNC(=N)N)NC(=O)[C@H](Cc1ccc(O)cc1)NC(=O)[C@H](CO)NC(=O)[C@H](CO)NC(=O)[C@@H](NC(=O)[C@H](Cc1ccccc1)NC(=O)[C@@H](NC(=O)[C@H](C)NC(=O)[C@H](CC(=O)O)NC(=O)[C@H](C)NC(=O)[C@H](Cc1ccc(O)cc1)NC)[C@@H](C)CC)[C@@H](C)O)[C@@H](C)CC)[C@@H](C)CC)C(=O)N[C@@H](CC(N)=O)C(=O)N[C@@H](CCCNC(=N)N)C(N)=O [[N^a MeTyr^1, Nle^27]-rhGRF(1-29)-NH2, H-N^a MeTyr-Ala-Asp-Ala-Ile-Phe-Thr-Ser-Ser-Tyr-Arg-Arg-Ile-Leu-Gly-Gln-Leu-Tyr- Ala-Arg-Lys-Leu-Leu-His-Glu-Ile-Nle-Asn-Arg-NH2] (H-[NMeY]ADAIFTSSYRRILGQLYARKLLHEI[Nle]NR-NH2) | 1130% | – | – | – |
| CC[C@H](C)[C@H](NC(=O)[C@H](C)NC(=O)[C@H](CC(=O)O)NC(=O)[C@H](C)NC(=O)[C@H](Cc1ccc(O)cc1)NC)C(=O)N[C@@H](Cc1ccccc1)C(=O)N[C@H](C(=O)N[C@@H](CC(N)=O)C(=O)N[C@@H](CO)C(=O)N[C@@H](Cc1ccc(O)cc1)C(=O)N[C@@H](CCCNC(=N)N)C(=O)N[C@@H](CCCCN)C(=O)N[C@H](C(=O)N[C@@H](CC(C)C)C(=O)NCC(=O)N[C@@H](CCC(N)=O)C(=O)N[C@@H](CC(C)C)C(=O)N[C@@H](CO)C(=O)N[C@@H](C)C(=O)N[C@@H](CCCNC(=N)N)C(=O)N[C@@H](CCCCN)C(=O)N[C@@H](CC(C)C)C(=O)N[C@@H](CC(C)C)C(=O)N[C@@H](CCC(N)=O)C(=O)N[C@@H](CC(=O)O)C(=O)N[C@H](C(=O)N[C@@H](CCSC)C(=O)N[C@@H](CO)C(=O)N[C@@H](CCCNC(=N)N)C(=O)N[C@@H](CCC(N)=O)C(=O)N[C@@H](CCC(N)=O)C(=O)NCC(N)=O)[C@@H](C)CC)C(C)C)[C@@H](C)O [[N^a MeTyr^1]hpGRF(1-32)-NH2, H-N^a MeTyr-Ala-Asp-Ala-Ile-Phe-Thr-Asn-Ser-Tyr-Arg-Lys-Val-Leu-Gly-Gln-Leu-Ser- Ala-Arg-Lys-Leu-Leu-Gln-Asp-Ile-Met-Ser-Arg-Gln-Gln-Gly-NH2] | 184% | – | – | – |
| H-C^a MePhe(4Cl)-Ala-Asp-Ala-Ile-Phe-Thr-Asn-Ser-Tyr-Arg-Lys-Val-Leu-Gly-Gln-Leu-Ser-Ala-Arg-Lys-Leu-Leu-Gln-Asp-Ile-Met-Ser-Arg-Gln-Gln-Gly-NH2 [[C^a Me/4Cl-Phe^1]-hpGRF(1-32)-NH2] | 5% | – | – | – |
| CC[C@H](C)[C@H](NC(=O)[C@H](C)NC(=O)[C@H](CC(=O)O)NC(=O)[C@H](C)NC(=O)[C@H](Cc1ccccc1)NC)C(=O)N[C@@H](Cc1ccccc1)C(=O)N[C@H](C(=O)N[C@@H](CC(N)=O)C(=O)N[C@@H](CO)C(=O)N[C@@H](Cc1ccc(O)cc1)C(=O)N[C@@H](CCCNC(=N)N)C(=O)N[C@@H](CCCCN)C(=O)N[C@H](C(=O)N[C@@H](CC(C)C)C(=O)NCC(=O)N[C@@H](CCC(N)=O)C(=O)N[C@@H](CC(C)C)C(=O)N[C@@H](CO)C(=O)N[C@@H](C)C(=O)N[C@@H](CCCNC(=N)N)C(=O)N[C@@H](CCCCN)C(=O)N[C@@H](CC(C)C)C(=O)N[C@@H](CC(C)C)C(=O)N[C@@H](CCC(N)=O)C(=O)N[C@@H](CC(=O)O)C(=O)N[C@H](C(=O)N[C@@H](CCSC)C(=O)N[C@@H](CO)C(=O)N[C@@H](CCCNC(=N)N)C(=O)N[C@@H](CCC(N)=O)C(=O)N[C@@H](CCC(N)=O)C(=O)NCC(N)=O)[C@@H](C)CC)C(C)C)[C@@H](C)O [[N^a MePhe^1]-hpGRF(1-32)-NH2] (H-[NMeF]ADAIFTNSYRKVLGQLSARKLLQDIMSRQQG-NH2) | 12% | substantially longer duration that hpGRF(1-32)-NH2 | powerful stimulators of the secretion of pituitary GH | 5 to 10 nM |
